Numbers after ± are expanded uncertainties.
Experiments:
[1] = 298.15 K, 101.33 kPa, Liquid; for viscosity: Concentric cylinders viscometry; for mass density: Vibrating tube method
[2] = mn = molality of the nth substance listed, in mol/kg; conditions: 298.15 K, 101.33 kPa, Liquid, Alternating current cell with electrodes

CC#N [acetonitrile]
[1]
Conditions | mass density [kg/m3] | viscosity [mPa·s]
– | 776.68 ± 0.2 | 0.34 ± 0.011

NC=O [formamide]
[1]
Conditions | mass density [kg/m3] | viscosity [mPa·s]
– | 1129.22 ± 0.59 | 3.3 ± 0.02

CO [methanol]
[1]
Conditions | mass density [kg/m3] | viscosity [mPa·s]
– | 786.61 ± 0.19 | 0.55 ± 0.01

C[N+](=O)[O-] [nitromethane]
[1]
Conditions | mass density [kg/m3] | viscosity [mPa·s]
– | 1130.15 ± 1.8 | 0.62 ± 0.021

CCCC[P+](CCCC)(CCCC)CCCC.CS(=O)(=O)[O-] [tetrabutylphosphonium methanesulfonate] + CC#N
[2]
Conditions | molar conductivity [S·m2/mol]
m1 = 0.000975 | 0.0159 ± 0.002
m1 = 0.001787 | 0.0156 ± 0.002
m1 = 0.002451 | 0.0154 ± 0.002
m1 = 0.003035 | 0.0153 ± 0.002
m1 = 0.00354 | 0.0151 ± 0.002
m1 = 0.00398 | 0.015 ± 0.002
m1 = 0.004717 | 0.0149 ± 0.002
m1 = 0.005305 | 0.0148 ± 0.002
m1 = 0.006188 | 0.0146 ± 0.002
m1 = 0.007186 | 0.0145 ± 0.002
m1 = 0.00808 | 0.0143 ± 0.002
m1 = 0.008774 | 0.0142 ± 0.002

CCCC[P+](CCCC)(CCCC)CCCC.CS(=O)(=O)[O-] [tetrabutylphosphonium methanesulfonate] + CO
[2]
Conditions | molar conductivity [S·m2/mol]
m1 = 0.000912 | 0.00826 ± 0.002
m1 = 0.001456 | 0.00793 ± 0.002
m1 = 0.001998 | 0.00769 ± 0.002
m1 = 0.002473 | 0.00752 ± 0.002
m1 = 0.002947 | 0.00737 ± 0.002
m1 = 0.003599 | 0.00721 ± 0.002
m1 = 0.00425 | 0.007 ± 0.002
m1 = 0.004926 | 0.00686 ± 0.002
m1 = 0.005759 | 0.0066 ± 0.002
m1 = 0.006723 | 0.00645 ± 0.002
m1 = 0.007795 | 0.0062 ± 0.002
m1 = 0.008664 | 0.00603 ± 0.002

CCCC[P+](CCCC)(CCCC)CCCC.CS(=O)(=O)[O-] [tetrabutylphosphonium methanesulfonate] + C[N+](=O)[O-]
[2]
Conditions | molar conductivity [S·m2/mol]
m1 = 0.000865 | 0.00765 ± 0.002
m1 = 0.001335 | 0.00741 ± 0.002
m1 = 0.00177 | 0.00723 ± 0.002
m1 = 0.002409 | 0.00698 ± 0.002
m1 = 0.002979 | 0.00674 ± 0.002
m1 = 0.003623 | 0.00653 ± 0.002
m1 = 0.004197 | 0.0063 ± 0.002
m1 = 0.004926 | 0.00611 ± 0.002
m1 = 0.005713 | 0.00588 ± 0.002
m1 = 0.006624 | 0.00563 ± 0.002
m1 = 0.007619 | 0.00541 ± 0.002
m1 = 0.008608 | 0.00518 ± 0.002

CCCC[P+](CCCC)(CCCC)CCCC.CS(=O)(=O)[O-] [tetrabutylphosphonium methanesulfonate] + NC=O
[2]
Conditions | molar conductivity [S·m2/mol]
m1 = 0.00084 | 0.00215 ± 0.002
m1 = 0.001471 | 0.00201 ± 0.002
m1 = 0.002032 | 0.00186 ± 0.002
m1 = 0.002641 | 0.00177 ± 0.002
m1 = 0.003191 | 0.00167 ± 0.002
m1 = 0.003793 | 0.00159 ± 0.002
m1 = 0.004583 | 0.00148 ± 0.002
m1 = 0.005305 | 0.00139 ± 0.002
m1 = 0.006146 | 0.0013 ± 0.002
m1 = 0.007072 | 0.00119 ± 0.002
m1 = 0.007937 | 0.00113 ± 0.002
m1 = 0.008497 | 0.00107 ± 0.002

CCCC[P+](CCCC)(CCCC)CCCC.CS(=O)(=O)[O-] [tetrabutylphosphonium methanesulfonate] + O
[2]
Conditions | molar conductivity [S·m2/mol]
m1 = 0.000818 | 0.00412 ± 0.002
m1 = 0.001471 | 0.00388 ± 0.002
m1 = 0.002032 | 0.00366 ± 0.002
m1 = 0.002641 | 0.00348 ± 0.002
m1 = 0.003191 | 0.00334 ± 0.002
m1 = 0.003793 | 0.00317 ± 0.002
m1 = 0.004583 | 0.003 ± 0.002
m1 = 0.005305 | 0.00288 ± 0.002
m1 = 0.006146 | 0.00274 ± 0.002
m1 = 0.007072 | 0.00258 ± 0.002
m1 = 0.007937 | 0.00245 ± 0.002
m1 = 0.008497 | 0.0024 ± 0.002

O [water]
Conditions | viscosity [mPa·s]
[1] | 0.89 ± 0.01
